In publication PMC12592400, “A unique inhibitor conformation selectively targets the DNA polymerase PolC of Gram-positive priority pathogens” (Nature Communications, 2025):
“And” between values parts separate entries of the source, which are not always exact repeats. Equal entries are not always repeated.

Experiments:
E. faecium DnaE = molecular target: T1, E. faecium DnaE (Enterococcus faecium, UniProt Q3XYP9); test: Real-time DNA primer extension assay; format: biochemical; conditions: for rate of activity (slope of fluorescence intensity change over time): Fig. 1f source data, E. faecium DnaE; for IC50: Fig. 1f, n = 3, ± SEM
T1 sequence (Q3XYP9 1-1104): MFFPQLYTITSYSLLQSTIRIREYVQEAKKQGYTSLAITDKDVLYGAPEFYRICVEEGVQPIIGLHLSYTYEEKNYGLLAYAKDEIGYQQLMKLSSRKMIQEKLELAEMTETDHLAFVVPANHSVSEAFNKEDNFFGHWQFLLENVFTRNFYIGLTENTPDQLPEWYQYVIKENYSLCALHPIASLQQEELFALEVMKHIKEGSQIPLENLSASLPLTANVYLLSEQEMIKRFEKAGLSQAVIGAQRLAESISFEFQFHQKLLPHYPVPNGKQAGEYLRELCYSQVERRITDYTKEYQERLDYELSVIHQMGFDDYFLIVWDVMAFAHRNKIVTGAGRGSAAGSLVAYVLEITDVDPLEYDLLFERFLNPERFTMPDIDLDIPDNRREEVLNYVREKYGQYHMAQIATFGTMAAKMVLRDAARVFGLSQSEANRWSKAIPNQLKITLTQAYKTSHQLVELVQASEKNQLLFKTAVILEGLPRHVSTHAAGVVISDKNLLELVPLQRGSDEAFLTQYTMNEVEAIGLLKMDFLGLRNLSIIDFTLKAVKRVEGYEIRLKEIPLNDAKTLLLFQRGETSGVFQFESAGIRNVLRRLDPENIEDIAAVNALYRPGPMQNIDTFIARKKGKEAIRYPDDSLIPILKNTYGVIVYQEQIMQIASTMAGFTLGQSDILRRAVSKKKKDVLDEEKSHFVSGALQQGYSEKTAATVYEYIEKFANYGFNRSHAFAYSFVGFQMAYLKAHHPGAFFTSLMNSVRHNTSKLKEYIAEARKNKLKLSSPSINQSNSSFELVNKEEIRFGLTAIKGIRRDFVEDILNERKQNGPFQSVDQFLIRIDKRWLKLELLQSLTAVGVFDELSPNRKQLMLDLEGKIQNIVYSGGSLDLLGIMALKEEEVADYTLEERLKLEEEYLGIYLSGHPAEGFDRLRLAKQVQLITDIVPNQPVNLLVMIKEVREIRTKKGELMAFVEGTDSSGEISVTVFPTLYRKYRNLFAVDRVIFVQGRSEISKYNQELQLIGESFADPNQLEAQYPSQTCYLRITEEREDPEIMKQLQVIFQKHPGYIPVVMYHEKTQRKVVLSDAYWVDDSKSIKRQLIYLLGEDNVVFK

E. coli Pol IIIα = molecular target: T2, E. coli Pol IIIα (Escherichia coli, UniProt P10443); test: Real-time DNA primer extension assay; format: biochemical; design: key to rate of activity (slope of fluorescence intensity change over time): slope of fluorescence intensity change per second (made positive); conditions: for rate of activity (slope of fluorescence intensity change over time): Fig. 1f source data, E. coli PolIIIα; for IC50: Fig. 1f, n = 3, read-out: PolIIIα IC50
T2 construct: made in house
Excerpt: DnaE from E. coli was purified as described before[33],[34].
Polymerase activity was monitored in real-time[31],[32] with a 42-nt long 5’ carboxyfluorescein-labelled DNA oligonucleotide template strand (DNASP8_42) annealed to a 30-nt primer oligonucleotide (oMU014). Polymerase activity in this assay is monitored by measuring fluorescence quenching of the labelled DNA template as a result of primer extension by PolC (for details see Supplementary Fig. 1b, c). Both primers were HPLC purified. Primer extension assays were performed in Reaction Buffer (see Gel-based polymerase and exonuclease assays) supplemented with 0.5 mg/mL BSA, 0.05% Tween20 and 25 uM of each dNTP (SRB) in 384-well Black Round Bottom plates (Corning 4514). The polymerase was diluted in the SRB and incubated for at least 5 min in the presence of inhibitor or solvent, with a final solvent concentration of 1%. The reaction was initiated by the addition of an equal volume of DNA substrate in SRB as described below. Fluorescence emission data was collected with a BMG Labtech PHERAstar FSX reader for 30 min at room temperature.
Compounds were dispensed with an Echo acoustic liquid handler (Beckman Coulter). All compounds were dissolved to 1 mM and 10 mM stocks in 100% DMSO and transferred to Echo LDV or PP source plates (Labcyte, Inc., CA), then dispensed to 384-well plates with a Labcyte Echo550 or Echo650 acoustic dispenser at volumes of 2.5 to 100 nL per well. […] A Mantis microfluidic liquid dispenser (Formulatrix) was used to dispense 5 µL polymerase and 5 µL substrate DNA (individually diluted in SRB) per well. […] The final concentration of DNA was 70 nM.
Data were analysed and standard error of the means (SEM) determined in Prism 8.4.2 and 10.2.3 (GraphPad). Raw time-course polymerase activity was plotted against time, with SEM of triplicates determined. The rate of activity (represented by signal quenching) was determined during the first 8 min (linear stage) by calculating the slope of fluorescence intensity change (converted to a positive value) over time (in seconds). The slopes were then normalized to percentage activity (%); per ‘replicate range’, 100% activity was defined as polymerase activity in the absence of inhibitor (polymerase control), and 0% activity was determined in the absence of polymerase (DNA signal; negative control). The SEM was determined between ‘replicate ranges’. The IC50 was determined using the dose-response (inhibition) nonlinear regression ‘[Inhibitor] vs. response (three parameters)’ without constraints.

T2 sequence (P10443 whole entry): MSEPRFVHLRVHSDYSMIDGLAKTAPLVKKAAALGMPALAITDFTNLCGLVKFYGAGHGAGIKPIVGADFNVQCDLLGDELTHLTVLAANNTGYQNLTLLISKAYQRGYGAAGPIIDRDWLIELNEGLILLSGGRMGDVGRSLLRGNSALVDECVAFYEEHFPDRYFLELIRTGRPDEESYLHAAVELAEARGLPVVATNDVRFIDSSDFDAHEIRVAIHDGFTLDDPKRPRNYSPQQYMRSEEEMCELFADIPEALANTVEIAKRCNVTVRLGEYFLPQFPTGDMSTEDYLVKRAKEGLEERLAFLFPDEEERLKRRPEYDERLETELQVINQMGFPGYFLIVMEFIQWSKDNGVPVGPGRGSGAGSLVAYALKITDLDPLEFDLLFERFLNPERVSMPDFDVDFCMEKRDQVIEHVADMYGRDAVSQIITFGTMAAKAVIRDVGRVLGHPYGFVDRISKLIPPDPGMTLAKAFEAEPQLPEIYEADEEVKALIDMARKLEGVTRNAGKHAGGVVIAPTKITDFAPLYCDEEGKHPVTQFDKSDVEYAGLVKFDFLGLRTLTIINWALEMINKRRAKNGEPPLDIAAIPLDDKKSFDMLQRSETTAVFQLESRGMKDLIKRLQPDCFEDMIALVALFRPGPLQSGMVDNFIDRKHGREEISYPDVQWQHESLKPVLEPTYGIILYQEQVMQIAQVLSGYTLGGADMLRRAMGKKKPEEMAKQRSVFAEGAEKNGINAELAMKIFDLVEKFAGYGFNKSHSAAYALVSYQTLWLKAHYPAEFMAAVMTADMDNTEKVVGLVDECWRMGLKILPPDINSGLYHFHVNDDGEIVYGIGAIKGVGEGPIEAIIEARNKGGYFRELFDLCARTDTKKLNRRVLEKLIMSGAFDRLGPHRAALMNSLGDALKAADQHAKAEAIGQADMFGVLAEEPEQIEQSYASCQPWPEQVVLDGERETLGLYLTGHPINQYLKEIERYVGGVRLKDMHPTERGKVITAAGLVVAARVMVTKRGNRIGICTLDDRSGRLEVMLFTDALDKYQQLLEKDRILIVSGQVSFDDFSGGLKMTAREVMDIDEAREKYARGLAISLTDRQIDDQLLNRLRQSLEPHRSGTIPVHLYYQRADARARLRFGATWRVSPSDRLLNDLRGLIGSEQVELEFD

SMILES	rate of activity (slope of fluorescence intensity change over time) (E. faecium DnaE; inhibitor 2.5 uM)	rate of activity (slope of fluorescence intensity change over time) (E. faecium DnaE; inhibitor 4 uM)	rate of activity (slope of fluorescence intensity change over time) (E. faecium DnaE; inhibitor 12.5 uM)	rate of activity (slope of fluorescence intensity change over time) (E. faecium DnaE; inhibitor 20 uM)	rate of activity (slope of fluorescence intensity change over time) (E. faecium DnaE; inhibitor 30 uM)	rate of activity (slope of fluorescence intensity change over time) (E. faecium DnaE; inhibitor 45 uM)	rate of activity (slope of fluorescence intensity change over time) (E. faecium DnaE; inhibitor 67.5 uM)	rate of activity (slope of fluorescence intensity change over time) (E. faecium DnaE; inhibitor 100 uM)	IC50 (E. faecium DnaE) [µM]	inhibition towards E. faecium DnaE lower than PolC (E. faecium DnaE; in vitro, DnaE versus PolC)	rate of activity (slope of fluorescence intensity change over time) (E. coli Pol IIIα; inhibitor 2.5 uM)	rate of activity (slope of fluorescence intensity change over time) (E. coli Pol IIIα; inhibitor 4 uM)	rate of activity (slope of fluorescence intensity change over time) (E. coli Pol IIIα; inhibitor 12.5 uM)	rate of activity (slope of fluorescence intensity change over time) (E. coli Pol IIIα; inhibitor 20 uM)	rate of activity (slope of fluorescence intensity change over time) (E. coli Pol IIIα; inhibitor 30 uM)	rate of activity (slope of fluorescence intensity change over time) (E. coli Pol IIIα; inhibitor 45 uM)	rate of activity (slope of fluorescence intensity change over time) (E. coli Pol IIIα; inhibitor 67.5 uM)	rate of activity (slope of fluorescence intensity change over time) (E. coli Pol IIIα; inhibitor 100 uM)	IC50 (E. coli Pol IIIα) [µM]
O=c1[nH]c(NCc2ccc(Cl)c(Cl)c2)nc2ncn(CCN3CCOCC3)c12 [IBZ, N^2-(3,4-dichlorobenzyl)-7-(2-[1-morpholinyl]ethyl)guanine]	49.8 and 49.1 and 50.9	37.6 and 41.6 and 39.1	40.9 and 43.1 and 37.2	38.6 and 37.7 and 36.0	35.7 and 37.2 and 30.7	28.3 and 28.4 and 27.5	18.3 and 24.4 and 21.1	19.9 and 17.8 and 14.2	89.3	~ seven-fold	18.2 and 16.5 and 13.6	15.9 and 17.9 and 15.0	25.0 and 21.1 and 24.7	29.3 and 21.9 and 23.5	26.6 and 21.8 and 26.2	27.8 and 27.6 and 30.0	28.5 and 30.7 and 23.6	31.4 and 35.8 and 26.7	> 100
O=c1[nH]c(NCc2ccc3c(c2)OC(F)(F)O3)nc2c(F)nn(CCO)c12 [ACX-801, 5-(((2,2-difluorobenzo[d][1,3]dioxol-5-yl)methyl)amino)-3-fluoro-1-(2-hydroxyethyl)-1,6-dihydro-7H-pyrazolo[4,3-d]pyrimidin-7-one]	49.5 and 44.4 and 49.3	51.3 and 51.4 and 45.3	48.4 and 47.3 and 48.0	47.8 and 51.2	50.3 and 47.9 and 46.9	47.9 and 46.1 and 47.4	46.5 and 39.7 and 47.4	45.5 and 39.2 and 38.1	> 100		16.3 and 12.4 and 15.4	16.6 and 16.5 and 16.7	21.1 and 17.1 and 17.2	17.9 and 17.4 and 20.0	18.5 and 16.7 and 17.5	13.8 and 14.5 and 13.7	17.1 and 17.3 and 12.6	15.2 and 13.3 and 12.6	> 100
